According to PubChem BioAssay (NCI):
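Cells were grown in 96-well plates and exposed to each compound for 48 hours at five concentrations; endpoints were interpolated linearly between bracketing concentrations, or set to the highest concentration if not reached. At the TGI there is no net growth.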

How the values were obtained:
Assay in all cases: NCI anticancer screen, dose series, 48 h
RXF 393 renal = test system: RXF 393 renal
K-562 leukemia = test system: K-562 leukemia
MCF7 breast = test system: MCF7 breast
A549 NSCLC = test system: A549 NSCLC
OVCAR-8 ovarian = test system: OVCAR-8 ovarian
CAKI-1 renal = test system: CAKI-1 renal
CCRF-CEM leukemia = test system: CCRF-CEM leukemia
SNB-75 CNS = test system: SNB-75 CNS
U251 CNS = test system: U251 CNS
KM12 colon = test system: KM12 colon
LOX IMVI melanoma = test system: LOX IMVI melanoma
EKVX NSCLC = test system: EKVX NSCLC
IGROV1 ovarian = test system: IGROV1 ovarian
UO-31 renal = test system: UO-31 renal
BT-549 breast = test system: BT-549 breast
SNB-19 CNS = test system: SNB-19 CNS
SF-539 CNS = test system: SF-539 CNS
NCI-H460 lung = test system: NCI-H460 lung
NCI-H23 lung = test system: NCI-H23 lung
SK-MEL-5 melanoma = test system: SK-MEL-5 melanoma
UACC-257 melanoma = test system: UACC-257 melanoma
SK-MEL-28 melanoma = test system: SK-MEL-28 melanoma
ACHN renal = test system: ACHN renal
MDA-MB-435 = test system: MDA-MB-435
HOP-92 NSCLC = test system: HOP-92 NSCLC
MALME-3M melanoma = test system: MALME-3M melanoma
SF-268 CNS = test system: SF-268 CNS
SK-OV-3 ovarian = test system: SK-OV-3 ovarian
NCI-H522 lung = test system: NCI-H522 lung
SN12C renal = test system: SN12C renal
HCT-15 colon = test system: HCT-15 colon
OVCAR-5 ovarian = test system: OVCAR-5 ovarian
M14 melanoma = test system: M14 melanoma
NCI-H226 lung = test system: NCI-H226 lung
PC-3 prostate = test system: PC-3 prostate
HCT-116 colon = test system: HCT-116 colon
RPMI-8226 leukemia = test system: RPMI-8226 leukemia
786-0 renal = test system: 786-0 renal
HCC-2998 colon = test system: HCC-2998 colon
COLO 205 colon = test system: COLO 205 colon
A498 renal = test system: A498 renal
TK-10 renal = test system: TK-10 renal
T-47D breast = test system: T-47D breast
UACC-62 melanoma = test system: UACC-62 melanoma
OVCAR-3 ovarian = test system: OVCAR-3 ovarian
SF-295 CNS = test system: SF-295 CNS
SR leukemia = test system: SR leukemia
MDA-N = test system: MDA-N
SK-MEL-2 melanoma = test system: SK-MEL-2 melanoma
HOP-62 NSCLC = test system: HOP-62 NSCLC
NCI/ADR-RES ovarian = test system: NCI/ADR-RES ovarian
MDA-MB-231 breast = test system: MDA-MB-231 breast
DU-145 prostate = test system: DU-145 prostate
OVCAR-4 ovarian = test system: OVCAR-4 ovarian
HT29 colon = test system: HT29 colon
HL-60(TB) leukemia = test system: HL-60(TB) leukemia
HS 578T breast = test system: HS 578T breast
MOLT-4 leukemia = test system: MOLT-4 leukemia
SW-620 colon = test system: SW-620 colon

## COC(=O)c1c(-c2ccccc2)c2sc3ccccc3n2c1N
RXF 393 renal
  TGI: 55.1 µM
K-562 leukemia
  TGI: > 100 µM
MCF7 breast
  TGI: > 100 µM
A549 NSCLC
  TGI: > 100 µM
OVCAR-8 ovarian
  TGI: > 100 µM
CAKI-1 renal
  TGI: > 100 µM
CCRF-CEM leukemia
  TGI: > 100 µM
SNB-75 CNS
  TGI: > 100 µM
U251 CNS
  TGI: > 100 µM
KM12 colon
  TGI: 88.8 µM
LOX IMVI melanoma
  TGI: 43.2 µM
EKVX NSCLC
  TGI: > 100 µM
IGROV1 ovarian
  TGI: > 100 µM
UO-31 renal
  TGI: > 100 µM
BT-549 breast
  TGI: > 100 µM
SNB-19 CNS
  TGI: > 100 µM
SF-539 CNS
  TGI: > 100 µM
NCI-H460 lung
  TGI: > 100 µM
NCI-H23 lung
  TGI: > 100 µM
SK-MEL-5 melanoma
  TGI: > 100 µM
UACC-257 melanoma
  TGI: > 100 µM
SK-MEL-28 melanoma
  TGI: > 100 µM
ACHN renal
  TGI: > 100 µM
MDA-MB-435
  TGI: > 100 µM
HOP-92 NSCLC
  TGI: 98 µM
MALME-3M melanoma
  TGI: 68.1 µM
SF-268 CNS
  TGI: > 100 µM
SK-OV-3 ovarian
  TGI: > 100 µM
NCI-H522 lung
  TGI: 73.2 µM
SN12C renal
  TGI: 96.1 µM
HCT-15 colon
  TGI: > 100 µM
OVCAR-5 ovarian
  TGI: > 100 µM
M14 melanoma
  TGI: > 100 µM
NCI-H226 lung
  TGI: > 100 µM
PC-3 prostate
  TGI: > 100 µM
HCT-116 colon
  TGI: > 100 µM
RPMI-8226 leukemia
  TGI: > 100 µM
786-0 renal
  TGI: > 100 µM
HCC-2998 colon
  TGI: > 100 µM
COLO 205 colon
  TGI: 97 µM
A498 renal
  TGI: 91.1 µM
TK-10 renal
  TGI: > 100 µM
T-47D breast
  TGI: 87.5 µM
UACC-62 melanoma
  TGI: > 100 µM
OVCAR-3 ovarian
  TGI: > 100 µM
SF-295 CNS
  TGI: > 100 µM
SR leukemia
  TGI: > 100 µM
MDA-N
  TGI: > 100 µM
SK-MEL-2 melanoma
  TGI: 70.7 µM
HOP-62 NSCLC
  TGI: > 100 µM
NCI/ADR-RES ovarian
  TGI: > 100 µM
MDA-MB-231 breast
  TGI: > 100 µM
DU-145 prostate
  TGI: > 100 µM
OVCAR-4 ovarian
  TGI: > 100 µM
HT29 colon
  TGI: > 100 µM

## CC(C)(C)C1CCC2c3c([nH]c4ccccc34)C3C(=O)N(c4ccc5c(c4)C(=O)c4ccccc4C5=O)C(=O)C3C2C1 (stereo unspecified)
RXF 393 renal
  TGI: > 100 µM
K-562 leukemia
  TGI: > 100 µM
MCF7 breast
  TGI: > 100 µM
A549 NSCLC
  TGI: > 100 µM
OVCAR-8 ovarian
  TGI: > 100 µM
CAKI-1 renal
  TGI: > 100 µM
CCRF-CEM leukemia
  TGI: > 100 µM
U251 CNS
  TGI: > 100 µM
KM12 colon
  TGI: > 100 µM
LOX IMVI melanoma
  TGI: > 100 µM
EKVX NSCLC
  TGI: > 100 µM
IGROV1 ovarian
  TGI: > 100 µM
HL-60(TB) leukemia
  TGI: > 100 µM
BT-549 breast
  TGI: > 100 µM
SNB-19 CNS
  TGI: > 100 µM
SF-539 CNS
  TGI: > 100 µM
NCI-H460 lung
  TGI: > 100 µM
NCI-H23 lung
  TGI: > 100 µM
SK-MEL-5 melanoma
  TGI: > 100 µM
UACC-257 melanoma
  TGI: > 100 µM
SK-MEL-28 melanoma
  TGI: > 100 µM
ACHN renal
  TGI: > 100 µM
MDA-MB-435
  TGI: > 100 µM
HS 578T breast
  TGI: > 100 µM
MALME-3M melanoma
  TGI: > 100 µM
SF-268 CNS
  TGI: > 100 µM
SK-OV-3 ovarian
  TGI: > 100 µM
NCI-H522 lung
  TGI: > 100 µM
MOLT-4 leukemia
  TGI: > 100 µM
SN12C renal
  TGI: > 100 µM
HCT-15 colon
  TGI: > 100 µM
OVCAR-5 ovarian
  TGI: > 100 µM
M14 melanoma
  TGI: > 100 µM
NCI-H226 lung
  TGI: > 100 µM
SW-620 colon
  TGI: > 100 µM
PC-3 prostate
  TGI: > 100 µM
HCT-116 colon
  TGI: > 100 µM
RPMI-8226 leukemia
  TGI: > 100 µM
786-0 renal
  TGI: > 100 µM
HCC-2998 colon
  TGI: > 100 µM
COLO 205 colon
  TGI: > 100 µM
A498 renal
  TGI: > 100 µM
TK-10 renal
  TGI: > 100 µM
T-47D breast
  TGI: > 100 µM
UACC-62 melanoma
  TGI: > 100 µM
OVCAR-3 ovarian
  TGI: > 100 µM
SF-295 CNS
  TGI: > 100 µM
SR leukemia
  TGI: > 100 µM
MDA-N
  TGI: > 100 µM
SK-MEL-2 melanoma
  TGI: > 100 µM
HOP-62 NSCLC
  TGI: > 100 µM
NCI/ADR-RES ovarian
  TGI: > 100 µM
MDA-MB-231 breast
  TGI: > 100 µM
DU-145 prostate
  TGI: > 100 µM
OVCAR-4 ovarian
  TGI: > 100 µM
HT29 colon
  TGI: > 100 µM

## CCN(CC)CCO/N=C1/C=C2CCC3C(CC[C@@]4(C)C3CC[C@]4(C)O)[C@@]2(C)CC1 (stereo partly specified)
RXF 393 renal
  TGI: 72.2 µM
K-562 leukemia
  TGI: 18.9 µM
MCF7 breast
  TGI: 80.1 µM
A549 NSCLC
  TGI: 45.9 µM
OVCAR-8 ovarian
  TGI: 20.4 µM
CAKI-1 renal
  TGI: 20.1 µM
CCRF-CEM leukemia
  TGI: 3.97 µM
SNB-75 CNS
  TGI: 9.15 µM
U251 CNS
  TGI: 11.2 µM
KM12 colon
  TGI: 18.9 µM
LOX IMVI melanoma
  TGI: 14.8 µM
EKVX NSCLC
  TGI: 42.9 µM
IGROV1 ovarian
  TGI: 21 µM
UO-31 renal
  TGI: 18.9 µM
BT-549 breast
  TGI: 39.1 µM
SNB-19 CNS
  TGI: 45.4 µM
SF-539 CNS
  TGI: 14.9 µM
NCI-H460 lung
  TGI: 15.3 µM
NCI-H23 lung
  TGI: 29 µM
SK-MEL-5 melanoma
  TGI: 26 µM
UACC-257 melanoma
  TGI: 18.2 µM
ACHN renal
  TGI: 39.2 µM
MDA-MB-435
  TGI: 4.77 µM
HOP-92 NSCLC
  TGI: 21 µM
HS 578T breast
  TGI: 33.7 µM
MALME-3M melanoma
  TGI: 15.6 µM
SF-268 CNS
  TGI: 31.2 µM
SK-OV-3 ovarian
  TGI: 46.4 µM
NCI-H522 lung
  TGI: 6.07 µM
MOLT-4 leukemia
  TGI: 10.2 µM
SN12C renal
  TGI: 16.3 µM
HCT-15 colon
  TGI: 13.7 µM
OVCAR-5 ovarian
  TGI: 80 µM
M14 melanoma
  TGI: 23.8 µM
NCI-H226 lung
  TGI: 10.2 µM
PC-3 prostate
  TGI: 88.1 µM
HCT-116 colon
  TGI: 16.7 µM
RPMI-8226 leukemia
  TGI: 15.2 µM
786-0 renal
  TGI: 12.7 µM
HCC-2998 colon
  TGI: 19 µM
COLO 205 colon
  TGI: 14.6 µM
A498 renal
  TGI: 0.878 µM
TK-10 renal
  TGI: 45.1 µM
T-47D breast
  TGI: 68 µM
UACC-62 melanoma
  TGI: 8.57 µM
OVCAR-3 ovarian
  TGI: 13.6 µM
SF-295 CNS
  TGI: 8.29 µM
MDA-N
  TGI: 5.72 µM
SK-MEL-2 melanoma
  TGI: 36.6 µM
HOP-62 NSCLC
  TGI: 21 µM
NCI/ADR-RES ovarian
  TGI: 7.48 µM
MDA-MB-231 breast
  TGI: 36 µM
DU-145 prostate
  TGI: 34.5 µM
OVCAR-4 ovarian
  TGI: > 100 µM
HT29 colon
  TGI: 5.35 µM
